Experimental data as given in US11427553B2, “Dihydrooxadiazinones” (Bayer Aktiengesellschaft, priority 2017, dated 2022).
pIC50: −log10 of the molar value.

How the values were obtained:
human full length PDE3B = human full length PDE3B (Homo sapiens (Human), UniProt Q13370); test: Assay 5 PDE3B enzyme inhibition (3H-cAMP SPA); type: biochemical; details: Sf9 cell extract
Procedure, shortened: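 Sf9 cell extract expressing human full-length PDE3B, diluted for linear kinetics (<70% substrate use), in 50 mM Tris/HCl pH 7.5, 8.3 mM MgCl2, 1.7 mM EDTA. [8-3H]cAMP substrate, 60 min at room temperature; stopped with yttrium SPA beads, scintillation counting. IC50 from sigmoidal activity vs log concentration curves.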

HeLa cells = test: Assay 1 cell proliferation measurement (CTG, 72 h), HeLa; type: cell-based, human; details: Homo sapiens, HeLa; Assay 1, 72 h, Cell Titer Glo; read-out: HeLa IC50 [nM] (Cervical cancer)
Procedure, shortened: (§1)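 Seed cells, incubate overnight at 37 °C; measure baseline viability (CTG, 0 h plate); dose compound in a 10-step 2.5-fold series (max generally 100 nM final, DMSO 0.3%) for 72 h; read CTG luminescence; fit IC50 with 4 parameters.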

human full length PDE3A = human full length PDE3A (Homo sapiens (Human), UniProt Q14432); test: Assay 4 PDE3A enzyme inhibition (3H-cAMP SPA); type: biochemical; details: Sf9 cell extract
Procedure, shortened: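 Enzyme: Sf9 extract with overexpressed full-length PDE3A; substrate [8-3H]cAMP, 0.025 μCi/well; 60 min, room temperature, Tris/HCl pH 7.5 buffer with MgCl2, EDTA, BSA.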

SK-MEL-3 cells = test: Assay 1 cell proliferation measurement (CTG, 72 h), SK-MEL-3; type: cell-based, human; details: Homo sapiens, SK-MEL3; Assay 1, 72 h, Cell Titer Glo; read-out: SK-MEL-3 IC50 [nM] (melanoma)
Procedure, shortened: as §1

IGR37 cells = test: Assay 1 cell proliferation measurement (CTG, 72 h), IGR37; type: cell-based; details: Homo sapiens, IGR-37, Cell Titer Glo, read-out: IGR37 IC50 [nM] (melanoma)

Sequence of human full length PDE3A (Q14432 whole entry): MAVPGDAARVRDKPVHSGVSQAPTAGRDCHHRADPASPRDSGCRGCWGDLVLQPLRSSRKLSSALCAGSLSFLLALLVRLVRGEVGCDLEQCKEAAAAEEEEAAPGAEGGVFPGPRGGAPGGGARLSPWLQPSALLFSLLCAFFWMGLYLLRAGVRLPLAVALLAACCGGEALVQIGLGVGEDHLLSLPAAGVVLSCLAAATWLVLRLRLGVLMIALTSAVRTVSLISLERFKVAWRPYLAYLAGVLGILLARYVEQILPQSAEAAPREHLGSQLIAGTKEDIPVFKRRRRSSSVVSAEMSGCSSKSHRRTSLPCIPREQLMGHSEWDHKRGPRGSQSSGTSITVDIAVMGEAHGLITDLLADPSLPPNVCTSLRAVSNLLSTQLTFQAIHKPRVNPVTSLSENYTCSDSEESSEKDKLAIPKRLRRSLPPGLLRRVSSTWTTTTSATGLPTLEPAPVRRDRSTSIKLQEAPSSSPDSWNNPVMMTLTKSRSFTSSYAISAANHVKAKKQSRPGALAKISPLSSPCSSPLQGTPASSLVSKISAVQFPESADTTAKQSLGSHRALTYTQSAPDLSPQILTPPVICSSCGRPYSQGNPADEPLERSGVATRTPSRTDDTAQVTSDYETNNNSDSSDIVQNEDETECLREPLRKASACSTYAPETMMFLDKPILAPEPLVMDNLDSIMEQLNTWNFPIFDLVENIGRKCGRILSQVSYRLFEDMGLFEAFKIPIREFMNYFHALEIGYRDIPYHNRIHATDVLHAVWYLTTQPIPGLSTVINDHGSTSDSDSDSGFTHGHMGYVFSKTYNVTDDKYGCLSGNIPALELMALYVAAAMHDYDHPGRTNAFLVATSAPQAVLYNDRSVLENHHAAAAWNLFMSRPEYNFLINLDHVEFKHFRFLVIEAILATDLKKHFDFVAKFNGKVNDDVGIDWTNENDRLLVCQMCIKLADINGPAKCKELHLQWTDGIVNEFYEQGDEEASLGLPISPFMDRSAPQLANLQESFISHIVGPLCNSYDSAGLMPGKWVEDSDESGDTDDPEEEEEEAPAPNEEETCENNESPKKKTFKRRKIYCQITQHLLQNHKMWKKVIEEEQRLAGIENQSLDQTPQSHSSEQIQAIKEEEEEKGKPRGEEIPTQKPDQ
Sequence of human full length PDE3B (Q13370 whole entry): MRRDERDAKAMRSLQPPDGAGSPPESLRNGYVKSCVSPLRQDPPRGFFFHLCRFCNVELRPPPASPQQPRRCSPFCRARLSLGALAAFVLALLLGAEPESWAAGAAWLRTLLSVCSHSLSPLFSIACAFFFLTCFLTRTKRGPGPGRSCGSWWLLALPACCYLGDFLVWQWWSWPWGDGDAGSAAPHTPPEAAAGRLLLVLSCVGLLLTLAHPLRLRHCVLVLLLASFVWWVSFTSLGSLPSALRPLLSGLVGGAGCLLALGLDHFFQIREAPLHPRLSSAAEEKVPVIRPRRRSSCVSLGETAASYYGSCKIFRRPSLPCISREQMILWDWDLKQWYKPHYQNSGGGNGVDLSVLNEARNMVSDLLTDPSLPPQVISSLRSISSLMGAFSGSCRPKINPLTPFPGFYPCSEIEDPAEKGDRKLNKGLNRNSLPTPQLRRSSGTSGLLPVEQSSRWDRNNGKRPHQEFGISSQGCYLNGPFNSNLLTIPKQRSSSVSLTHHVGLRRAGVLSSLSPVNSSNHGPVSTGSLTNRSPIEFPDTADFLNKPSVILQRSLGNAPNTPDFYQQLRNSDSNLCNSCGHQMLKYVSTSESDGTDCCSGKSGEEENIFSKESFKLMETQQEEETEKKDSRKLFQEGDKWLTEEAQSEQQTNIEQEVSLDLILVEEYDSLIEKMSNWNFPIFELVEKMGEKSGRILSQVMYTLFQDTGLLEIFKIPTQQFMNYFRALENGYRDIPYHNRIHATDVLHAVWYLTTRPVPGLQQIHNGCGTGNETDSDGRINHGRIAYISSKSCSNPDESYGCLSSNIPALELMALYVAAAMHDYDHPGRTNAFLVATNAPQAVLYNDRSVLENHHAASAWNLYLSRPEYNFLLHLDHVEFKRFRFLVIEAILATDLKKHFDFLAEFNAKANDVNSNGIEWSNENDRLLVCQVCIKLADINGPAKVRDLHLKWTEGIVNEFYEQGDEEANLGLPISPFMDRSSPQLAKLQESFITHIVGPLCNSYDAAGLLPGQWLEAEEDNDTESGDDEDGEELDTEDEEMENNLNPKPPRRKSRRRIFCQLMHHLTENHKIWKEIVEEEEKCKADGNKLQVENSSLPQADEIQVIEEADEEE

Structure (SMILES) | pIC50 (human full length PDE3B) | IC50 (HeLa cells) [nM] | pIC50 (human full length PDE3A) | IC50 (SK-MEL-3 cells) [nM] | IC50 (IGR37 cells) [nM]
C[C@@H]1OC(=O)NN=C1c1ccc(-n2cnc(C(F)(F)F)c2)c(C(F)(F)F)c1 [Example 266, (6S)-6-Methyl-5-{3-(trifluoromethyl)-4-[4-(trifluoromethyl)-1H-imidazol-1-yl]phenyl}-3,6-dihydro-2H-1,3,4-oxadiazin-2-one] | 6.03 | 19 | < 6.00 | 35 | 65
CCC1(O)CCN(c2ccc(C3=NNC(=O)OC3)cc2C(F)(F)F)CC1 [Example 253, 5-[4-(4-Ethyl-4-hydroxypiperidin-1-yl)-3-(trifluoromethyl)phenyl]-3,6-dihydro-2H-1,3,4-oxadiazin-2-one] | 6.81 | 1 | 6.72 | 40 | 5
CC1OC(=O)NN=C1c1ccc(N2CCOCC2)c(C(F)(F)F)c1 (racemic) [Example 126, (rac)-6-Methyl-5-(4-morpholino-3-(trifluoromethyl)phenyl)-3,6-dihydro-2H-1,3,4-oxadiazin-2-one] | 8.10 | 1 | 7.92 | 1 | 2
CNc1ccc(C2=NNC(=O)OC2)cc1C(F)(F)F [Example 276, 5-[4-(Methylamino)-3-(trifluoromethyl)phenyl]-3,6-dihydro-2H-1,3,4-oxadiazin-2-one] | 6.62 | 27 | 7.10 | 49 | 50
N#CC1CCN(c2ccc(C3=NNC(=O)OC3)cc2C(F)(F)F)CC1 [Example 239, 1-[4-(2-Oxo-3,6-dihydro-2H-1,3,4-oxadiazin-5-yl)-2-(trifluoromethyl)phenyl]piperidine-4-carbonitrile] | 7.59 | 0.3 | 7.57 | 1 | 1
C[C@@H]1OC(=O)NN=C1c1ccc(CN2CCOCC2)c(C(F)(F)F)c1 [Example 196, (6S)-6-Methyl-5-{4-[(morpholin-4-yl)methyl]-3-(trifluoromethyl)phenyl}-3,6-dihydro-2H-1,3,4-oxadiazin-2-one] | 6.10 | 15 | 6.09 | 31 | 33
O=C1NN=C(c2ccc(NCc3cnccn3)c(C(F)(F)F)c2)CO1 [Example 226, 5-[4-{[(Pyrazin-2-yl)methyl]amino}-3-(trifluoromethyl)phenyl]-3,6-dihydro-2H-1,3,4-oxadiazin-2-one] | 6.73 | 1 | 6.89 | 2 | 2
CC1(C#N)CN(c2ccc(C3=NNC(=O)OC3)cc2C(F)(F)F)C1 [Example 251, 3-Methyl-1-[4-(2-oxo-3,6-dihydro-2H-1,3,4-oxadiazin-5-yl)-2-(trifluoromethyl)phenyl]azetidine-3-carbonitrile] | 7.01 | 2 | 7.21 | 5 | 4
CC1OC(=O)NN=C1c1ccc(-c2cnn(C(F)F)c2)c(C(F)(F)F)c1 (racemic) [Example 191, (rac)-5-{4-[1-(Difluoromethyl)-1H-pyrazol-4-yl]-3-(trifluoromethyl)phenyl}-6-methyl-3,6-dihydro-2H-1,3,4-oxadiazin-2-one] | 7.24 | 0.4 | 7.32 | 1 | 1
C[C@@H]1OC(=O)NN=C1c1ccc(-c2ccc(O)cc2)c(C(F)(F)F)c1 [Example 174, (6S)-5-[4′-Hydroxy-2-(trifluoromethyl)[1,1′-biphenyl]-4-yl]-6-methyl-3,6-dihydro-2H-1,3,4-oxadiazin-2-one] | 7.80 | 1 | 7.57 | 1 | 1
C[C@@H]1OC(=O)NN=C1c1ccc(-c2ccncc2)c(C(F)(F)F)c1 [Example 166, (6S)-6-Methyl-5-[4-(pyridin-4-yl)-3-(trifluoromethyl)phenyl]-3,6-dihydro-2H-1,3,4-oxadiazin-2-one] | 7.38 | 1 | 7.16 | 1 | 1
